Several values for one entry are separate records, joined by “and”; a condition that tells them apart may be missing. Equal values may be shown once. Read-outs that look alike come from different tables or passages of the source.
Assays:
CDK12–cyclin K and DDB1 = molecular target: T1, CDK12–cyclin K and DDB1 (Homo sapiens, UniProt Q16531+Q9NYV4, K965R); test: TR-FRET ternary complex formation assay (compound titration); format: binding; details: for TR-FRET signal at compound concentration: replicate titrations
T1 construct: His6–CDK12 (a.a. 713–1,052); full-length or beta-propeller B domain deletion (ΔBPB: a.a. 396–705 deleted) constructs of His6–DDB1ΔBPB, StrepII–Avi–DDB1, or His6–Spy–DDB1; made in house; host or cells: Trichoplusia ni High Five insect cells (baculovirus)
How it was run: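 Signal was the ratio of 520 nm to 490 nm fluorescence, measured after a 70 μs delay that reduced background.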

[1] = test system: cyclin K–eGFP degradation reporter; test: Cyclin K reporter stability analysis (dual-color cyclin K–eGFP reporter); format: cell-based, human
How it was run: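 Cells (HEK293T–Cas9, reporter-expressing) at 1 × 10^6 ml^−1; 5 h compound or DMSO; flow cytometry; gMFI eGFP ÷ mCherry on round mCherry-positive events; normalized to 3 DMSO controls.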

HEK293T cells = test: Drug sensitivity assay (CellTiter-Glo viability) with or without MLN4924 pretreatment; format: cell-based, human; details: for EC50: Homo sapiens, HEK-293T, HEK293T viability, 72 h, compound alone, read-out: Cellular assays EC50; for EC50 / Toxicity rescue: Supplementary Table 2; for Toxicity rescue: MLN4924-mediated cytotoxicity rescue, 10 µM used where n.d.
How it was run: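 HEK293T–Cas9, 0.15 × 10^6 ml^−1; pretreat DMSO vs 100 nM MLN4924; drugs dispensed after 2 h; 3 d exposure; CellTiter-Glo; viability vs DMSO control.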

[2] = compound concentration 79.2001 nM
[3] = compound concentration 158.4 nM
[4] = compound concentration 309.6 nM
[5] = compound concentration 626.401 nM
[6] = compound concentration 1252.8 nM
[7] = compound concentration 9936.01 nM
[8] = compound concentration 20016 nM
[9] = in vitro complex formation, 50 nM CDK12–cyclin K, 100 nM DDB1, text and figures, read-out: TR-FRET EC50
[10] = Supplementary Table 2, HEK293T cycK-eGFP reporter, 5 h, read-out: Cellular assays DC50
[11] = source data sheet correlations, read-out: DC50

T1 sequence (Q9NYV4 713-1052 K965R): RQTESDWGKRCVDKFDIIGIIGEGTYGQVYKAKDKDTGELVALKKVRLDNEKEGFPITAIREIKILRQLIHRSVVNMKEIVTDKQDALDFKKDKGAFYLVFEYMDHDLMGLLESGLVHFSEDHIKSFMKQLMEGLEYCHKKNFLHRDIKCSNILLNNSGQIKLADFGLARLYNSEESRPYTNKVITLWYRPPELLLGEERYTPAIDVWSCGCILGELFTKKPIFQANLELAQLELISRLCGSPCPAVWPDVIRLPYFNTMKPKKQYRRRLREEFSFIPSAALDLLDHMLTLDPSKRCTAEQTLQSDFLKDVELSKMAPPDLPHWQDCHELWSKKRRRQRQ
T1 sequence (O75909 1-267 partner): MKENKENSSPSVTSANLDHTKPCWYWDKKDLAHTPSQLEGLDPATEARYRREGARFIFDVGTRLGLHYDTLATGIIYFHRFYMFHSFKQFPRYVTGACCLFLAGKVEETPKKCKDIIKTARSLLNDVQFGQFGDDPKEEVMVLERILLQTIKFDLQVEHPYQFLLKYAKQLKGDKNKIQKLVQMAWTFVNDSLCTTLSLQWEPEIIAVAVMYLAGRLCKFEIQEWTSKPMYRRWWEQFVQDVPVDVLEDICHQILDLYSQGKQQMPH
T1 sequence (Q16531 whole entry): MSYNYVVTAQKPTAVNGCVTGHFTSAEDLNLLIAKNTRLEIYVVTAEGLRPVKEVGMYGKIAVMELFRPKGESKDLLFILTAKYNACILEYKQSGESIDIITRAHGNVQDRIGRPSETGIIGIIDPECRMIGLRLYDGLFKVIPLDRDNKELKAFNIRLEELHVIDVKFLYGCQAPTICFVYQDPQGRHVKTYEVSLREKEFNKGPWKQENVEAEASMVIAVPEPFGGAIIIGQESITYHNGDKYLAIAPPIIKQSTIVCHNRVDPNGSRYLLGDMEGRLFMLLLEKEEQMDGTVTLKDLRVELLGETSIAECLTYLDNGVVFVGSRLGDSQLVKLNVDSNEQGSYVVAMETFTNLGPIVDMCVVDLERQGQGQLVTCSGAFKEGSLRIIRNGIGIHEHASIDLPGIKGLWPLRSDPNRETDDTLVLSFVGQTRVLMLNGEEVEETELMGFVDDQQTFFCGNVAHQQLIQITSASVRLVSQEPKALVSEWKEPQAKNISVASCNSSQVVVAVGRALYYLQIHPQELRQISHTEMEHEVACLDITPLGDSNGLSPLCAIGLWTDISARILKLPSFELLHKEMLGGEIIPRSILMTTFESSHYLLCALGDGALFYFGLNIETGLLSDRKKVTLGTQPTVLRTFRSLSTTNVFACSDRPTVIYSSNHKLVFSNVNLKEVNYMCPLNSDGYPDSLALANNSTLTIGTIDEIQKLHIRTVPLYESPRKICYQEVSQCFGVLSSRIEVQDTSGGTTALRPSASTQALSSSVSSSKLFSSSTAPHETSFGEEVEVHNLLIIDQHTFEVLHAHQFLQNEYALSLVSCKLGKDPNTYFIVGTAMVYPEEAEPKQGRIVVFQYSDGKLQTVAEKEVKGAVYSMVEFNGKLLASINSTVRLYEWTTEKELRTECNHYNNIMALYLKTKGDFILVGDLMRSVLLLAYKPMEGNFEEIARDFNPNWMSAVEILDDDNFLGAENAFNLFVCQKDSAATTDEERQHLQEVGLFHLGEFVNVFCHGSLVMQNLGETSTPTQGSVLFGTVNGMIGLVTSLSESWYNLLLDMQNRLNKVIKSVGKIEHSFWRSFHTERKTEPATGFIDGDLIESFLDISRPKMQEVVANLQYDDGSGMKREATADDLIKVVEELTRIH

TR-FRET signal at compound concentration (CDK12–cyclin K and DDB1; compound concentration 4.68 nM)	TR-FRET signal at compound concentration (CDK12–cyclin K and DDB1; compound concentration 21.6 nM)	TR-FRET signal at compound concentration (CDK12–cyclin K and DDB1; compound concentration 36 nM)	TR-FRET signal at compound concentration (CDK12–cyclin K and DDB1; [2])	TR-FRET signal at compound concentration (CDK12–cyclin K and DDB1; [3])	TR-FRET signal at compound concentration (CDK12–cyclin K and DDB1; [4])	TR-FRET signal at compound concentration (CDK12–cyclin K and DDB1; [5])	TR-FRET signal at compound concentration (CDK12–cyclin K and DDB1; [6])	TR-FRET signal at compound concentration (CDK12–cyclin K and DDB1; compound concentration 2448 nM)	TR-FRET signal at compound concentration (CDK12–cyclin K and DDB1; [7])	TR-FRET signal at compound concentration (CDK12–cyclin K and DDB1; [8])	EC50 (CDK12–cyclin K and DDB1; [9]) [nM]	DC50 [1, 10] [nM]	DC50 [1, 11] [nM]	Structure (SMILES)	EC50 (HEK293T cells) [nM]	Toxicity rescue (HEK293T cells) [%]	also measured
0.135 and 0.1336	0.1436 and 0.1394	0.1546 and 0.1561	0.1838 and 0.187	0.2226 and 0.2249	0.2777 and 0.285	0.3467 and 0.3568	0.4111 and 0.4466	0.4906 and 0.4799	0.5278 and 0.4844	0.4733 and 0.5319	456 ± 34	> 10000		CC[C@H](CO)Nc1nc(NCCCc2ccncc2)c2ncn(C(C)C)c2n1 [DS27]	> 10000	0	
													27	CC[C@@H](CO)Nc1nc(NCc2ccc(-c3ccccn3)cc2)c2ncn(C(C)C)c2n1 [DS28, reference compound]	221	610	TR-FRET signal at compound concentration 0.468 nM (CDK12–cyclin K and DDB1; compound concentration 0.468 nM, raw titration data): 0.2434 and 0.2416 and 0.2052; TR-FRET signal at compound concentration 2.16 nM (CDK12–cyclin K and DDB1; compound concentration 2.16 nM, raw titration data): 0.3117 and 0.3133 and 0.2621; TR-FRET signal at compound concentration 3.6 nM (CDK12–cyclin K and DDB1; compound concentration 3.6 nM, raw titration data): 0.4303 and 0.4364 and 0.3629; TR-FRET signal at compound concentration 7.92001 nM (CDK12–cyclin K and DDB1; compound concentration 7.92001 nM, raw titration data): 0.6777 and 0.6662 and 0.6266; TR-FRET signal at compound concentration 15.84 nM (CDK12–cyclin K and DDB1; compound concentration 15.84 nM, raw titration data): 1.124 and 1.123 and 1.094; TR-FRET signal at compound concentration 30.96 nM (CDK12–cyclin K and DDB1; compound concentration 30.96 nM, raw titration data): 2.005 and 1.92 and 1.844; TR-FRET signal at compound concentration 62.6401 nM (CDK12–cyclin K and DDB1; compound concentration 62.6401 nM, raw titration data): 3.017 and 2.942 and 2.921; TR-FRET signal at compound concentration 125.28 nM (CDK12–cyclin K and DDB1; compound concentration 125.28 nM, raw titration data): 3.528 and 3.596 and 3.608; TR-FRET signal at compound concentration 244.8 nM (CDK12–cyclin K and DDB1; compound concentration 244.8 nM, raw titration data): 3.609 and 3.755 and 3.8349; TR-FRET signal at compound concentration 993.601 nM (CDK12–cyclin K and DDB1; compound concentration 993.601 nM, raw titration data): 3.693 and 3.913 and 3.885; TR-FRET signal at compound concentration 2001.6 nM (CDK12–cyclin K and DDB1; compound concentration 2001.6 nM, raw titration data): 3.507 and 3.702 and 3.683
											46 ± 2		253	CC[C@H](CO)Nc1nc(NCCCc2cccc(F)c2)c2ncn(C(C)C)c2n1 [DS29]	452	713	TR-FRET signal at compound concentration (CDK12–cyclin K and DDB1; compound concentration 0.468 nM): 0.256 and 0.2516; TR-FRET signal at compound concentration (CDK12–cyclin K and DDB1; compound concentration 2.16 nM): 0.3133 and 0.3182; TR-FRET signal at compound concentration (CDK12–cyclin K and DDB1; compound concentration 3.6 nM): 0.4047 and 0.4311; TR-FRET signal at compound concentration (CDK12–cyclin K and DDB1; compound concentration 7.92001 nM): 0.6615 and 0.6381; TR-FRET signal at compound concentration (CDK12–cyclin K and DDB1; compound concentration 15.84 nM): 1.045 and 0.9914; TR-FRET signal at compound concentration (CDK12–cyclin K and DDB1; compound concentration 30.96 nM): 1.635 and 1.536; TR-FRET signal at compound concentration (CDK12–cyclin K and DDB1; compound concentration 62.6401 nM): 2.287 and 2.228; TR-FRET signal at compound concentration (CDK12–cyclin K and DDB1; compound concentration 125.28 nM): 2.838 and 2.826; TR-FRET signal at compound concentration (CDK12–cyclin K and DDB1; compound concentration 244.8 nM): 3.127 and 3.261; TR-FRET signal at compound concentration (CDK12–cyclin K and DDB1; compound concentration 993.601 nM): 3.39 and 3.672; TR-FRET signal at compound concentration (CDK12–cyclin K and DDB1; compound concentration 2001.6 nM): 3.566 and 3.699; EC50 (CDK12–cyclin K and DDB1; sheet MOESM7, read-out: log TR-FRET EC50 (converted)): 45.7 nM; EC50 (CDK12–cyclin K and DDB1; source data sheet correlations, read-out: TR-FRET EC50): 45.7 nM; % MLN4924 rescue (HEK293T cells; PCA input): 669%
0.211 and 0.2282	0.2112 and 0.2225	0.2194 and 0.2418	0.2283 and 0.2565	0.2533 and 0.2816	0.2963 and 0.3231	0.3477 and 0.3849	0.4331 and 0.4555	0.5457 and 0.5736	0.6887 and 0.7282	0.6557 and 0.645	1230 ± 134	> 10000		CC[C@H](CO)Nc1nc(NCCc2ccccc2)c2ncn(C(C)C)c2n1 [DS31]	> 10000	0	fold lower affinity than DS11 (CDK12–cyclin K and DDB1; TR-FRET complex formation): 12-22 fold
